Patent US20250092039A1, “GLUTARIMIDE-CONTAINING PAN-KRAS-MUTANT DEGRADER COMPOUNDS AND USES THEREOF” (Tiger Biotherapeutics Inc., priority 2022, published 2025)

Assays:
[1] = Pharmacokinetics following single intravenous and oral gavage dosing (AUC0-24h); format: in vivo; conditions: mouse, plasma, male CD-1 mice
Summary of the method: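 Male CD-1 mice (3 per route) given a single iv (5 mL/kg) or oral gavage (10 mL/kg) dose in 10% DMSO/30% PEG400/60% aqueous 20% hydroxypropyl-β-cyclodextrin. Plasma sampled to 24 h and measured by LC/MS/MS. PK parameters derived by non-compartmental analysis.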

SW620 cells = assay: 3D cell growth inhibition of SW620 cells carrying endogenous KRAS G12V mutation (CellTiter-Glo 3D, GI50); format: cell-based; conditions: Homo sapiens, SW-620, 144 h; SW620 cells, 6 days; read-out: SW620 3D cell growth GI50
Summary of the method: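 […], compound exposure lasted 6 days at 37° C, added the day after plating from DMSO stocks over a concentration range. Cells: SW620, KRAS G12V, 3D culture.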

KRAS-G12V/RAF1 = KRAS-G12V/RAF1 (Homo sapiens (Human), UniProt P01116, G12V); assay: KRAS/RAF1 binding inhibition assay (AlphaScreen)
Summary of the method: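 IC50 comes from variable-slope nonlinear fits of % inhibition (relative to DMSO) against inhibitor concentration. The AlphaScreen signal tracks the interaction of GppNHp-bound KRAS G12V with the RAF1 RBD after 60 min at 4° C with compound in 2% DMSO final.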

KRAS G12V = KRAS G12V (Homo sapiens (Human), UniProt P01116, G12V); assay: KRAS G12V degradation in SW620 cells (Western blot, DC50); format: cell-based; conditions: 24 hours
Summary of the method: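 KRAS levels were quantified by fluorescent Western blot as percent of the DMSO control after 24 h of compound exposure at 37° C in homozygous KRAS G12V SW620 cells. A four-parameter variable-slope fit of the dose-response gave the half-maximal degradation concentration.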

Sequence of KRAS-G12V/RAF1 (P01116-2 other isoform, or with tags, fused parts or gaps G12V): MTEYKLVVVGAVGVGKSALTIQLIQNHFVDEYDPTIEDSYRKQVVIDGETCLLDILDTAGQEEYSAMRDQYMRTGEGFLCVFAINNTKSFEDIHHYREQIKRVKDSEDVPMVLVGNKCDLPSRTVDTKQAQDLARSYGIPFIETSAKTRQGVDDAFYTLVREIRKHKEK
Sequence of KRAS G12V (P01116-2 other isoform, or with tags, fused parts or gaps G12V): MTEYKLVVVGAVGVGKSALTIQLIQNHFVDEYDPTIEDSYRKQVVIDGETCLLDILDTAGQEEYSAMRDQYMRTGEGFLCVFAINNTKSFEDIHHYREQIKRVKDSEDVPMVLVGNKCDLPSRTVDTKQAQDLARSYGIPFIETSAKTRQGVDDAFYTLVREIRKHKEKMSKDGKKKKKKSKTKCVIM

SMILES	AUC(0-t) ([1]; single oral dose 15 mg/Kg) [ng·h/mL]	GI50 (SW620 cells) [nM]	IC50 (KRAS-G12V/RAF1) [nM]	DC50 (KRAS G12V) [nM]	AUC(0-t) ([1]; single oral dose 30 mg/Kg) [ng·h/mL]
CCc1c(F)ccc2cc(O)cc(-c3ncc4c(N5CCC[C@]6(CCO6)C5)nc(OCC5(CN6CCC(CN7CCN(c8cc(F)c(C9CCC(=O)NC9=O)c(F)c8)CC7)CC6)CC5)nc4c3F)c12 (stereo partly drawn) [Compound 216, 3-(4-(4-((1-((1-(((7-(8-ethyl-7-fluoro-3-hydroxynaphthalen-1-yl)-8-fluoro-4-((S)-1-oxa-6-azaspiro[3.5]nonan-6-yl)pyrido[4,3-d]pyrimidin-2-yl)oxy)methyl)cyclopropyl)methyl)piperidin-4-yl)methyl)piperazin-1-yl)-2,6-difluorophenyl)piperidine-2,6-dione]	2140	< 10	> 200	1 to 10	–
CCc1c(F)ccc2cc(O)cc(-c3ncc4c(N5CCC[C@]6(CCO6)C5)nc(OCC5(CN6CCC(C)(CN7CCN(c8ccc9c(c8)CN([C@H]8CCC(=O)NC8=O)C9=O)CC7)CC6)CC5)nc4c3F)c12 [Compound 217, (S)-3-(5-(4-((1-((1-(((7-(8-ethyl-7-fluoro-3-hydroxynaphthalen-1-yl)-8-fluoro-4-((S)-1-oxa-6-azaspiro[3.5]nonan-6-yl)pyrido[4,3-d]pyrimidin-2-yl)oxy)methyl)cyclopropyl)methyl)-4-methylpiperidin-4-yl)methyl)piperazin-1-yl)-1-oxoisoindolin-2-yl)piperidine-2,6-dione]	977	< 10	20 to 200	< 1	–
CCc1c(F)ccc2cc(O)cc(-c3ncc4c(N5CCC[C@]6(CCO6)C5)nc(OCC5(CN6CCC7(CCC(N8CCN(c9ccc%10c(c9)CN([C@H]9CCC(=O)NC9=O)C%10=O)CC8)CC7)CC6)CC5)nc4c3F)c12 [Compound 219, (S)-3-(5-(4-(3-((1-(((7-(8-ethyl-7-fluoro-3-hydroxynaphthalen-1-yl)-8-fluoro-4-((S)-1-oxa-6-azaspiro[3.5]nonan-6-yl)pyrido[4,3-d]pyrimidin-2-yl)oxy)methyl)cyclopropyl)methyl)-3-azaspiro[5.5]undecan-9-yl)piperazin-1-yl)-1-oxoisoindolin-2-yl)piperidine-2,6-dione]	–	< 10	< 20	< 1	718
